# Source: US20210382058A1, “PATIENT SELECTION FOR TREATMENT OF MYC POSITIVE CANCERS WITH INDENOISOQUINOLINES” (Purdue Research Foundation, priority 2020, published 2021)
# Like-named read-outs stand apart in the source and are kept apart here.
# Columns and labels:
# NCI-60 cancer cell lines = assay: NCI-60 cancer cell line drug screen (GI50, MGM); type: cell-based, human; conditions: Homo sapiens; for GI50: read-out: Antiproliferative Activities [GI50 (μM)]
# Experimental: Cancer cells were incubated with the test compounds at five concentrations ranging from 100 μM to 10 nM for 48 h. […] The approximate average of GI50 values across the entire panel of NCI-60 cancer cell lines for each compound was recorded as the MGM value.
# [1] = tested on: MYC protein expression in MCF-7 breast cancer cells; assay: Western blotting of MYC protein level in MCF-7 cells; type: cell-based, human; conditions: Homo sapiens, MCF7; western blotting, MCF-7 cells, 0.5, 1, 2, and 4 μM, 24 hours; read-out: MYC Inhibition
# Procedure, shortened: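 Immunoblotting with ECL detection quantified MYC, with GAPDH (1:2000) as reference and anti-MYC at 1:1000.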
# human topoisomerase I = target: T1, human topoisomerase I (Homo sapiens, UniProt P11387); conditions: relative topoisomerase I inhibition levels, previously determined, six levels (0 - 5, +++++ = 5); cited from earlier work
# T1 sequence (P11387 1-765): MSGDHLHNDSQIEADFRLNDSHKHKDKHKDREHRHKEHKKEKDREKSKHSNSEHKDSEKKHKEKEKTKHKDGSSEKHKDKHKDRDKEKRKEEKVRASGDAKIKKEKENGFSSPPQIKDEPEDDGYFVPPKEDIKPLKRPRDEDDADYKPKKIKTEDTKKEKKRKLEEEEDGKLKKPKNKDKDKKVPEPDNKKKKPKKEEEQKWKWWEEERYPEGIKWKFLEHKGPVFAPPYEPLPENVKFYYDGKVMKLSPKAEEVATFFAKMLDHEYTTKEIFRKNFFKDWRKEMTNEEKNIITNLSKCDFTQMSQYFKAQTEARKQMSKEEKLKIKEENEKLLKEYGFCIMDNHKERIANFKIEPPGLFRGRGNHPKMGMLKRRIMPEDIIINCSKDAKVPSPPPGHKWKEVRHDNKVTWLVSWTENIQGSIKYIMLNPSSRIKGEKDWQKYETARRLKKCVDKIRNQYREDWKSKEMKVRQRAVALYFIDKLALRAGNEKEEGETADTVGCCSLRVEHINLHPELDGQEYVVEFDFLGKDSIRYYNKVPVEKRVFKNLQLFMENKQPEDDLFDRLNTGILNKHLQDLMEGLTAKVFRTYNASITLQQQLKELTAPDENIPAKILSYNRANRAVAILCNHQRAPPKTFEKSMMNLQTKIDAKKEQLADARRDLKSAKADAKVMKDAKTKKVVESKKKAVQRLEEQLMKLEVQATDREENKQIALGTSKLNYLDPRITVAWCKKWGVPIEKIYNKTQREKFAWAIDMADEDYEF
compound,measurement,setting,value
CN(C)CCCn1c2c(c3cccnc3c1=O)C(=O)c1ccccc1-2 [Compound 20],GI50,"NCI-60 cancer cell lines; 786-0, Renal Cancer, 786-0",1.16 µM
same,GI50,"NCI-60 cancer cell lines; A549, Non-Small Cell Lung Cancer, A549/ATCC",0.59 µM
same,GI50,"NCI-60 cancer cell lines; ACHN, Renal Cancer, ACHN",0.29 µM
same,GI50,"NCI-60 cancer cell lines; BT-549, Breast Cancer, BT-549",1.67 µM
same,GI50,"NCI-60 cancer cell lines; CAKI-1, Renal Cancer, CAKI-1",0.57 µM
same,GI50,"NCI-60 cancer cell lines; CCRF-CEM, Leukemia, CCRF-CEM",1.37 µM
same,GI50,"NCI-60 cancer cell lines; COLO 205, Colon Cancer, COLO 205",0.47 µM
same,GI50,"NCI-60 cancer cell lines; DU-145, Prostate Cancer, DU-145",1.89 µM
same,GI50,"NCI-60 cancer cell lines; HCC 2998, Colon Cancer, HCC-2998",2.17 µM
same,GI50,"NCI-60 cancer cell lines; HCT-15, Colon Cancer, HCT-15",1.03 µM
same,GI50,"NCI-60 cancer cell lines; HCT-116, Colon Cancer, HCT-116",0.44 µM
same,GI50,"NCI-60 cancer cell lines; HL-60, Leukemia, HL-60(TB)",1.8 µM
same,GI50,"NCI-60 cancer cell lines; HOP-62, Non-Small Cell Lung Cancer, HOP-62",1.25 µM
same,GI50,"NCI-60 cancer cell lines; HOP-92, Non-Small Cell Lung Cancer, HOP-92",1.42 µM
same,GI50,"NCI-60 cancer cell lines; HT-29, Colon Cancer, HT29",1.01 µM
same,GI50,"NCI-60 cancer cell lines; Hs-578T, Breast Cancer, HS 578T",3.08 µM
same,GI50,"NCI-60 cancer cell lines; IGROV-1, Ovarian Cancer, IGROV1",1.91 µM
same,GI50,"NCI-60 cancer cell lines; K562, Leukemia, K-562",1.42 µM
same,GI50,"NCI-60 cancer cell lines; KM12, Colon Cancer, KM12",1.61 µM
same,GI50,"NCI-60 cancer cell lines; LOX IMVI, Melanoma, LOX IMVI",0.81 µM
same,GI50,"NCI-60 cancer cell lines; Leukemia, SR",0.31 µM
same,GI50,"NCI-60 cancer cell lines; MCF7, Breast Cancer, MCF7",0.37 µM
same,GI50,"NCI-60 cancer cell lines; MDA-MB-231, Breast Cancer, MDA-MB-231/ATCC",2.58 µM
same,GI50,"NCI-60 cancer cell lines; MDA-MB-435, Melanoma, MDA-MB-435",1.93 µM
same,GI50,"NCI-60 cancer cell lines; MDA-MB-468, Breast Cancer, MDA-MB-468",1.57 µM
same,GI50,"NCI-60 cancer cell lines; MOLT-4, Leukemia, MOLT-4",0.29 µM
same,GI50,"NCI-60 cancer cell lines; Melanoma, M14",1.57 µM
same,GI50,"NCI-60 cancer cell lines; NCI-H23, Non-Small Cell Lung Cancer, NCI-H23",1.86 µM
same,GI50,"NCI-60 cancer cell lines; NCI-H226, Non-Small Cell Lung Cancer, NCI-H226",1.32 µM
same,GI50,"NCI-60 cancer cell lines; NCI-H322M, Non-Small Cell Lung Cancer, NCI-H322M",2.47 µM
same,GI50,"NCI-60 cancer cell lines; NCI-H460, Non-Small Cell Lung Cancer, NCI-H460",0.41 µM
same,GI50,"NCI-60 cancer cell lines; NCI-H522, Non-Small Cell Lung Cancer, NCI-H522",1.84 µM
same,GI50,"NCI-60 cancer cell lines; OVCAR-3, Ovarian Cancer, OVCAR-3",2.41 µM
same,GI50,"NCI-60 cancer cell lines; OVCAR-4, Ovarian Cancer, OVCAR-4",1.93 µM
same,GI50,"NCI-60 cancer cell lines; OVCAR-5, Ovarian Cancer, OVCAR-5",2.44 µM
same,GI50,"NCI-60 cancer cell lines; OVCAR-8, Ovarian Cancer, OVCAR-8",0.95 µM
same,GI50,"NCI-60 cancer cell lines; Ovarian Cancer, NCl/ADR-RES",2.72 µM
same,GI50,"NCI-60 cancer cell lines; Prostate Cancer, PC-3",2.05 µM
same,GI50,"NCI-60 cancer cell lines; RPMI-8226, Leukemia, RPMI-8226",1.84 µM
same,GI50,"NCI-60 cancer cell lines; RXF 393, Renal Cancer, RXF 393",2.31 µM
same,GI50,"NCI-60 cancer cell lines; Renal Cancer, U0-31",0.57 µM
same,GI50,"NCI-60 cancer cell lines; SF-268, CNS Cancer, SF-268",2.15 µM
same,GI50,"NCI-60 cancer cell lines; SF-295, CNS Cancer, SF-295",0.75 µM
same,GI50,"NCI-60 cancer cell lines; SF-539, CNS Cancer, SF-539",0.85 µM
same,GI50,"NCI-60 cancer cell lines; SK-MEL-2, Melanoma, SK-MEL-2",3.92 µM
same,GI50,"NCI-60 cancer cell lines; SK-MEL-5, Melanoma, SK-MEL-5",1 µM
same,GI50,"NCI-60 cancer cell lines; SK-MEL-28, Melanoma, SK-MEL-28",1.56 µM
same,GI50,"NCI-60 cancer cell lines; SK-OV-3, Ovarian Cancer, SK-OV-3",2.22 µM
same,GI50,"NCI-60 cancer cell lines; SN12C, Renal Cancer, SN12C",1.12 µM
same,GI50,"NCI-60 cancer cell lines; SNB-19, CNS Cancer, SNB-19",1.75 µM
same,GI50,"NCI-60 cancer cell lines; SNB-75, CNS Cancer, SNB-75",0.66 µM
same,GI50,"NCI-60 cancer cell lines; SW-620, Colon Cancer, SW-620",0.46 µM
same,GI50,"NCI-60 cancer cell lines; T47D, Breast Cancer, T-47D",2.04 µM
same,GI50,"NCI-60 cancer cell lines; TK-10, Renal Cancer, TK-10",3.02 µM
same,GI50,"NCI-60 cancer cell lines; U-251, CNS Cancer, U251",1.05 µM
same,GI50,"NCI-60 cancer cell lines; UACC-62, Melanoma, UACC-62",1.3 µM
same,GI50,"NCI-60 cancer cell lines; UACC-257, Melanoma, UACC-257",2.02 µM
same,mean GI50 across NCI-60 panel (MGM),NCI-60 cancer cell lines; average of GI50 values across the entire panel of NCI-60 cancer cell lines,1.26 µM
same,minimal effective concentration,[1],4 µM
same,Top1 Inhibiton,human topoisomerase I,"+++ (strong inhibition, +++, MYC expression inhibited at 0.5 to 1.0 μM)"
